Read-outs that look alike come from different tables or passages of the source.
How the values were obtained:
[1] = tested on: A549 (human non-small cell lung cancer); assay: Antiproliferative activity (SRB assay); format: cell-based; settings: mean ± SD, three separated experiments, 72 h
Protocol: (§1) MCF-7, MGC-803, Hela and HepG-2 cell lines were cultured in a base medium (90% DMEM and 10% FBS), A549 and U937 were cultured in a base medium (90% PRMI-1640 and 10% FBS) at 37 °C, 5% CO2 and a saturated humidity atmosphere. All the mediums were supplemented with 10% FBS and 1% […]/streptomycin (all cells were purchased from Shanghai Institutes for Biological Sciences, Chinese Academy of Sciences, Shanghai, China).
(§2) A549, MGC-803, MCF-7, HepG2 and Hela cells were seeded at the appropriate cell line density (3 × 10^3 to 4 × 10^3 cells/well). The cells were then incubated at 37 °C for 24 h in a humidified 5%CO2 in 96-well plates prior to experiments. After a further 72 h of incubation, cell proliferation was quantified with SRB ([…]) to determine the number of surviving cells. The absorbance at 560 nm was measured by microplate. The experiment was repeated three times, and the data were listed in the form of mean and standard deviation.

[2] = tested on: Hela (human cervical cancer cells); assay: Antiproliferative activity (SRB assay); format: cell-based; settings: mean ± SD, three separated experiments, 72 h
Protocol: as §1, §2

[3] = tested on: HepG2 (human liver cancer cells); assay: Antiproliferative activity (SRB assay); format: cell-based; settings: mean ± SD, three separated experiments, 72 h
Protocol: as §1, §2

[4] = tested on: MCF-7 (human breast cancer cells); assay: Antiproliferative activity (SRB assay); format: cell-based; settings: MCF7, mean ± SD, three separated experiments, 72 h
Protocol: as §1, §2

[5] = tested on: U937 (human leukaemia cells); assay: Antiproliferative activity (CCK-8 assay); format: cell-based; settings: U-937, mean ± SD, three separated experiments, 72 h
Protocol: as §1
(§3) MGC-803 cells were collected and seeded into 96 well plates at a density of 8000/well. The mediums containing drugs and cell suspension were added into the well. The cells were incubated in 5% CO2 incubator at 37 °C for 72 h. Each well was added 10 µL CCK8 solution, and the incubation time was 3–4 h. The absorbance value at 450 nm was measured by microplate reader. Data are calculated with GraphPad Prism5 software.

[6] = tested on: MGC-803 (human gastric cancer cells); assay: Antiproliferative activity (SRB / CCK-8 assay); format: cell-based; settings: mean ± SD
Protocol: as §1, §2, §3

[7] = tested on: 293 T (human embryonic kidney cell); assay: Growth inhibition of normal human cells; format: cell-based; settings: HEK-293T, triplicate, mean ± SD
Protocol: (§4) The effect of compound 4c on three types of normal human cell lines including LO2 (human hepatocyte cells), 293 T (human embryonic kidney cell) and THP-1-derived macrophages was then determined.

[8] = tested on: LO2 (human hepatocyte cells); assay: Growth inhibition of normal human cells; format: cell-based; settings: triplicate, mean ± SD
Protocol: as §4

[9] = tested on: THP-1-derived macrophages; assay: Growth inhibition of normal human cells; format: cell-based; settings: Macrophage, triplicate, mean ± SD
Protocol: as §4

[10] = tested on: six human cancer cell lines (MCF-7, MGC-803, HepG2, Hela, A549, U937); assay: Antiproliferative activity, summary over the tested cancer cell lines; format: cell-based
Protocol: as §2, §3

[11] = three separated experiments, 72 h
[12] = tested cancer cell lines, read-out: IC50, anti-proliferative activity

| Compound | IC50 [1] [nM] | IC50 [2] [nM] | IC50 [3] [nM] | IC50 [4] [nM] | IC50 [5] [nM] | IC50 [6, 11] [nM] | melting point [°C] | IC50 ([6]; Table 2, triplicate) [nM] | IC50 [7] [nM] | IC50 [8] [nM] | IC50 [9] [nM] | IC50 [10, 12] [nM] | IC50 ([10]; several tested cancer cell lines, range, read-out: IC50, inhibitory effect) [nM] |
| --- | --- | --- | --- | --- | --- | --- | --- | --- | --- | --- | --- | --- | --- |
| COc1cc(C(=O)/C(F)=C/c2oc3ccccc3c2C)cc(OC)c1OC [4p, (Z)-2-fluoro-3–(3-methylbenzofuran-2-yl)-1–(3,4,5-trimethoxyphenyl)prop-2-en-1-one] | > 5000 | > 5000 | > 5000 | > 5000 | > 5000 | > 5000 | 117.4 to 118.8 |  |  |  |  |  |  |
| COc1cc(C(=O)/C(F)=C/c2ccc3oc4ccccc4c3c2)cc(OC)c1OC [4q, (Z)-3-(dibenzo[b,d]furan-2-yl)-2-fluoro-1–(3,4,5-trimethoxyphenyl)prop-2-en-1-one] | > 5000 | > 5000 | > 5000 | > 5000 | > 5000 | > 5000 | 114 to 116.4 |  |  |  |  |  |  |
| COc1ccc(/C=C\c2cc(OC)c(OC)c(OC)c2)cc1O [CA-4, Combretastatin A4, reference compound] | 5 ± 1 | 8 ± 1 | 7 ± 1 |  | 0.3 | 2 ± 1 |  | 2 ± 1 | 12 ± 2 | 5 ± 1 | 7 ± 1 |  |  |
| COc1cc(C(=O)/C(F)=C/c2nc3ccccc3[nH]2)cc(OC)c1OC [4j, (Z)-3-(1H-benzo[d]imidazol-2-yl)-2-fluoro-1–(3,4,5-trimethoxyphenyl)prop-2-en-1-one] | > 5000 | > 5000 | > 5000 | > 5000 | > 5000 | > 5000 | 178.9 to 180.9 |  |  |  |  |  |  |
| COc1cc(C(=O)/C(F)=C/c2cc3ccccc3o2)cc(OC)c1OC [4o, (Z)-3-(benzofuran-2-yl)-2-fluoro-1–(3,4,5-trimethoxyphenyl)prop-2-en-1-one] | > 5000 | > 5000 | > 5000 | 4408 ± 43 | > 5000 | 3301 ± 26 | 115.5 to 116.6 |  |  |  |  |  |  |
| COc1cc(C(=O)/C(F)=C/c2cc3ccccc3s2)cc(OC)c1OC [4h, (Z)-3-(benzo[b]thiophen-2-yl)-2-fluoro-1–(3,4,5-trimethoxyphenyl)prop-2-en-1-one] | 2570 ± 159 | 2493 ± 2 | 5976 ± 4 | 2101 ± 3 | 606 ± 26 | 1897 ± 1 | 122.2 to 123.6 |  |  |  |  |  |  |
| COc1cc(C(=O)/C(F)=C/c2coc3ccccc23)cc(OC)c1OC [4t, (Z)-3-(benzofuran-3-yl)-2-fluoro-1–(3,4,5-trimethoxyphenyl)prop-2-en-1-one] | 1020 ± 64 | 203 ± 6 | 1063 ± 8 | 1293 ± 7 | 125 ± 2 |  | 103.7 to 104.8 |  |  |  |  |  |  |
| COc1cc(C(=O)/C(F)=C/c2cc3c(cc2Br)OCO3)cc(OC)c1OC [4l, (Z)-3–(6-bromobenzo[d][1,3]dioxol-5-yl)-2-fluoro-1–(3,4,5-trimethoxyphenyl)prop-2-en-1-one] | > 5000 | > 5000 | > 5000 | > 5000 | > 5000 | > 5000 | 156.3 to 157.8 |  |  |  |  |  |  |
| COc1cc(C(=O)/C(F)=C/c2csc3ccccc23)cc(OC)c1OC [4g, (Z)-3-(benzo[b]thiophen-3-yl)-2-fluoro-1–(3,4,5-trimethoxyphenyl)prop-2-en-1-one] | 505 ± 10 | 72 ± 1 | 199 ± 6 | 121 ± 12 | 456 ± 13 | 21 ± 7 | 118 to 119 |  |  |  |  |  |  |
| COc1cc(C(=O)/C(F)=C/c2c(-c3ccccc3)[nH]c3ccccc23)cc(OC)c1OC [4b, (Z)-2-fluoro-3–(2-phenyl-1H-indol-3-yl)-1–(3,4,5-trimethoxyphenyl)prop-2-en-1-one] | 3635 ± 1 | 685 ± 2 | 883 ± 41 | 551 ± 22 | 562 ± 20 | 202 ± 23 | 150.7 to 152.4 |  |  |  |  |  |  |
| COc1cc(C(=O)/C(F)=C/c2sc3ccccc3c2C)cc(OC)c1OC [4i, (Z)-2-fluoro-3–(3-methylbenzo[b]thiophen-2-yl)-1–(3,4,5-trimethoxyphenyl)prop-2-en-1-one] | > 5000 | > 5000 | > 5000 | > 5000 | > 5000 | > 5000 | 140.5 to 143.4 |  |  |  |  |  |  |
| COc1cc(C(=O)/C(F)=C/c2ccc3occc3c2)cc(OC)c1OC [4m, (Z)-3-(benzofuran-5-yl)-2-fluoro-1–(3,4,5-trimethoxyphenyl)prop-2-en-1-one] | > 5000 | 925 ± 7 | 1407 ± 14 | 1002 ± 7 | 710 ± 27 | 362 ± 123 | 94.1 to 94.2 |  |  |  |  |  |  |
| COC(=O)c1cccc2[nH]cc(/C=C(\F)C(=O)c3cc(OC)c(OC)c(OC)c3)c12 [4f, Methyl(Z)-3–(2-fluoro-3-oxo-3–(3,4,5-trimethoxyphenyl)prop-1-en-1-yl)-1H-indole-4-carboxylate] | > 5000 | > 5000 | > 5000 | > 5000 | > 5000 | > 5000 | 118 to 119 |  |  |  |  | > 5000 |  |
| COc1cc(C(=O)/C(F)=C/c2ccc3sc4ccccc4c3c2)cc(OC)c1OC [4s, (Z)-3-(dibenzo[b, d]thiophen-2-yl)-2-fluoro-1–(3,4,5-trimethoxyphenyl)prop-2-en-1-one] | > 5000 | > 5000 | > 5000 | > 5000 | > 5000 | > 5000 | 142.6 to 143.8 |  |  |  |  |  |  |
| COC(=O)c1ccc2[nH]cc(/C=C(\F)C(=O)c3cc(OC)c(OC)c(OC)c3)c2c1 [4d, Methyl(Z)-3–(2-fluoro-3-oxo-3–(3,4,5-trimethoxyphenyl)prop-1-en-1-yl)-1H-indole-5-carboxylate] | > 5000 | > 5000 | > 5000 | > 5000 | > 5000 | > 5000 | 80.4 to 81.8 |  |  |  |  | > 5000 |  |
| COc1cc(C(=O)/C(F)=C/c2ccc3c(c2)CCO3)cc(OC)c1OC [4n, (Z)-3–(2,3-dihydrobenzofuran-5-yl)-2-fluoro-1–(3,4,5-trimethoxyphenyl)prop-2-en-1-one] | 364 ± 3 | 42 ± 1 | 116 ± 1 | 128 ± 4 | 31 ± 1 | 43 ± 1 | 100.8 to 103.7 |  |  |  |  |  | 31 to 364 |
| COc1cc(C(=O)/C(F)=C/c2c(C)[nH]c3ccccc23)cc(OC)c1OC [4e, (Z)-2-fluoro-3–(2-methyl-1H-indol-3-yl)-1–(3,4,5-trimethoxyphenyl)prop-2-en-1-one] | > 5000 | 101 ± 31 | 1385 ± 1 | 551 ± 14 | 123 ± 11 | 72 ± 2 | 204 to 206.4 |  |  |  |  |  |  |
| COc1cc(C(=O)/C(F)=C/c2cccc3c2OCO3)cc(OC)c1OC [4k, (Z)-3-(benzo[d][1,3]dioxol-4-yl)-2-fluoro-1–(3,4,5-trimethoxyphenyl)prop-2-en-1-one] | > 5000 | 565 ± 12 | 3298 ± 7 | 441 ± 1 | 806 ± 24 | 166 ± 4 | 148.1 to 149.1 |  |  |  |  |  |  |
| COc1cc(C(=O)/C(F)=C/c2cc3c(cc2[N+](=O)[O-])OCO3)cc(OC)c1OC [4r, (Z)-2-fluoro-3–(6-nitrobenzo[d][1,3]dioxol-5-yl)-1–(3,4,5-trimethoxyphenyl)prop-2-en-1-one] | > 5000 | > 5000 | > 5000 | > 5000 | > 5000 | > 5000 | 174.7 to 176.6 |  |  |  |  |  |  |
| COC(=O)c1ccc2c(/C=C(\F)C(=O)c3cc(OC)c(OC)c(OC)c3)c[nH]c2c1 [4a, Methyl(Z)-3–(2-fluoro-3-oxo-3–(3,4,5-trimethoxyphenyl)prop-1-en-1-yl)-1H-indole-6-carboxylate] | > 5000 | > 5000 | > 5000 | > 5000 | > 5000 | > 5000 | 207.3 to 209.1 |  |  |  |  | > 5000 |  |

Reference: PMC8741257, “Identification of novel non-toxic and anti-angiogenic α-fluorinated chalcones as potent colchicine binding site inhibitors” (Journal of Enzyme Inhibition and Medicinal Chemistry, 2022)
